According to a compilation of properties of binary mixtures (doi:10.1515/zpch-2013-0494):

Test: xn = mol fraction of the nth substance listed
Settings: 101 kPa

CC(CC(C)(C)C)CP(=O)([O-])CC(C)CC(C)(C)C.CCCCCCCCCCCCCC[P+](CCCCCC)(CCCCCC)CCCCCC + CCCCCCCCCCCC
viscosity [mPa·s]
Settings | x1 = 0.4684 | x1 = 0.6647 | x1 = 0.8071 | x1 = 1
298.15 K | – | 249 | 449 | 1000
303.15 K | 64.2 | 195 | 344 | –
308.15 K | – | 156 | 291 | –
313.15 K | 48 | 126 | 233 | 439
318.15 K | 40.9 | – | 180 | –
323.15 K | 35.2 | 85 | 144 | 264
328.15 K | 30.5 | 69.9 | 118 | –
333.15 K | 27.1 | 59.3 | 95.4 | 170
338.15 K | 24.2 | – | 81.1 | –
343.15 K | 21.2 | – | 65 | –
353.15 K | – | – | – | 78

CCCCCCCCCCCCCC[P+](CCCC)(CCCC)CCCC.CCCCCCCCCCCCc1ccccc1S(=O)(=O)[O-] + CCCCCCCCCCCC
viscosity [mPa·s]
Settings | x1 = 0.354 | x1 = 0.4402 | x1 = 0.4844 | x1 = 0.6789 | x1 = 1
298.15 K | 312 | – | 594 | 2930 | –
303.15 K | 225 | – | 441 | 1580 | –
308.15 K | 167 | 239 | – | 1130 | –
313.15 K | – | – | – | 812 | 1480
318.15 K | 95 | 135 | 176 | – | –
323.15 K | 74.3 | 105 | 135 | 431 | 750
328.15 K | – | 81.7 | 101 | – | –
333.15 K | 47.7 | 65.7 | 81.6 | 228 | 409
338.15 K | – | 53.6 | – | 169 | –
343.15 K | 31.5 | 44.3 | 54.4 | – | 238
348.15 K | 26.5 | 36.8 | 43.3 | 108 | –
353.15 K | 22.6 | 31.1 | 37.1 | – | 148

CCCCCCCCCCCCCC[P+](CCCCCC)(CCCCCC)CCCCCC.N#C[N-]C#N + CCCCCCCCCCCC
viscosity [mPa·s]
Settings | 298.15 K | 303.15 K | 308.15 K | 313.15 K | 318.15 K | 333.15 K | 338.15 K | 343.15 K | 348.15 K | 353.15 K
x1 = 0.5534 | 160 | 116 | – | 71.6 | 57.8 | 32.8 | 28 | – | 21.2 | 19
x1 = 0.736 | 238 | 181 | 141 | – | 89.1 | 49.3 | 41.4 | 35.5 | 30.3 | 26.1
x1 = 1 | 440 | – | – | 196 | – | 82 | – | 56 | – | –
